In patent US6737383B1, “Herbicidal oxadiazolidines” (priority 1999, dated 2004):

Columns and labels:
[1] = system: duck salad; experiment: Test B flood test duck salad; assay type: in vivo, Heteranthera limosa
Outline: (§1)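 Flood test on plants grown to the 2-leaf stage; treated plants kept in greenhouse twelve to sixteen days, then visually rated against controls on a 0 (no effect) to 10 (complete control) scale.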

[2] = system: rape; experiment: Test B pre/postemergence rape; assay type: in vivo, Brassica napus
Outline: (§2)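 Test chemicals in a non-phytotoxic solvent mixture with surfactant were sprayed preemergence onto planted seeds and postemergence onto plants 2 to 18 cm tall (1- to 4-leaf stage). After twelve to sixteen days in a greenhouse, injury was visually rated against untreated controls from 0 (no effect) to 10 (complete control).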

[3] = system: cocklebur; experiment: Test B pre/postemergence cocklebur; assay type: in vivo, Xanthium strumarium
Outline: as §2

[4] = system: purple nutsedge; experiment: Test B pre/postemergence purple nutsedge; assay type: in vivo, Cyperus rotundus
Outline: as §2

[5] = system: giant foxtail; experiment: Test B pre/postemergence giant foxtail; assay type: in vivo, Setaria faberii
Outline: as §2

[6] = system: crabgrass; experiment: Test B pre/postemergence crabgrass; assay type: in vivo, Digitaria sanguinalis
Outline: as §2

[7] = system: bedstraw; experiment: Test B pre/postemergence bedstraw; assay type: in vivo, Galium aparine
Outline: as §2

[8] = system: velvetleaf; experiment: Test B pre/postemergence velvetleaf; assay type: in vivo, Abutilon theophrasti
Outline: as §2

[9] = system: rice; experiment: Test B flood test rice; assay type: in vivo, Oryza sativa
Outline: as §1

[10] = system: sugar beet; experiment: Test B pre/postemergence sugar beet; assay type: in vivo, Beta vulgaris
Outline: as §2

[11] = system: blackgrass; experiment: Test B pre/postemergence blackgrass; assay type: in vivo, Alopecurus myosuroides
Outline: as §2

[12] = system: bamyardgrass; experiment: Test B flood test barnyardgrass; assay type: in vivo, Echinochloa crus-galli
Outline: as §1

[13] = system: surinam grass; experiment: Test B pre/postemergence surinam grass; assay type: in vivo, Brachiaria decumbens
Outline: as §2

[14] = system: smallflower flatsedge; experiment: Test B flood test smallflower flatsedge; assay type: in vivo, Cyperus difformis
Outline: as §1

[15] = system: corn; experiment: Test B pre/postemergence corn; assay type: in vivo, Zea mays
Outline: as §2

[16] = system: wheat; experiment: Test B pre/postemergence wheat; assay type: in vivo, Triticum aestivum
Outline: as §2

[17] = system: soybean; experiment: Test B pre/postemergence soybean; assay type: in vivo, Glycine max
Outline: as §2

[18] = Postemergence, Rate 62 g/ha, scale 0 to 10, 0 is no effect, 10 is complete control
[19] = Rate 125 g/ha, Postemergence section (flood test species), scale 0 to 10, 0 no effect, 10 complete control
[20] = Rate 500 g/ha, listed under Postemergence (flood test species), scale 0 to 10, 0 no effect, 10 complete control
[21] = flood test, listed under Postemergence, Rate 250 g/ha, scale 0 to 10, 0 no effect, 10 complete control
[22] = Postemergence, Rate 250 g/ha, scale 0 to 10, 0 no effect, 10 complete control
[23] = Preemergence, Rate 62 g/ha, scale 0 to 10 (0 no effect, 10 complete control)
[24] = Preemergence, Rate 125 g/ha, scale 0 to 10 (0 no effect, 10 complete control)
[25] = Preemergence, Rate 250 g/ha, scale of 0 to 10 where 0 is no effect and 10 is complete control
[26] = Preemergence, Rate 500 g/ha, scale 0 (no effect) to 10 (complete control)
[27] = Rate 125 g/ha, Postemergence, scale 0 to 10, 0 no effect, 10 complete control
[28] = Rate 500 g/ha, Postemergence, scale 0 to 10, 0 no effect, 10 complete control

Structure (SMILES): Cc1cccc(C(C)C)c1-n1c(=O)on(C(=O)N(c2ccc(F)cc2)C(C)C)c1=O [Compound 65]
- Ducksalad plant response rating [1, 18]: 0
- Ducksalad plant response rating [1, 19]: 0
- Ducksalad plant response rating [1, 20]: 0
- Ducksalad plant response rating [1, 21]: 0
- Rape plant response rating [2, 18]: 0
- Rape plant response rating [2, 22]: 0
- Rape plant response rating [2, 23]: 0
- Plant response rating, Rape [2, 24]: 0
- Plant response rating, Rape [2, 25]: 0
- Rape plant response rating [2, 26]: 3
- Rape plant response rating [2, 27]: 0
- Rape plant response rating [2, 28]: 0
- Cocklebur plant response rating [3, 18]: 0
- Cocklebur plant response rating [3, 22]: 0
- Cocklebur plant response rating [3, 23]: 0
- Plant response rating, Cocklebur [3, 24]: 0
- Plant response rating, Cocklebur [3, 25]: 0
- Cocklebur plant response rating [3, 26]: 0
- Cocklebur plant response rating [3, 27]: 0
- Cocklebur plant response rating [3, 28]: 0
- Nutsedge plant response rating [4, 18]: 0
- Nutsedge plant response rating [4, 22]: 0
- Nutsedge plant response rating [4, 23]: 0
- Plant response rating, Nutsedge [4, 24]: 0
- Plant response rating, Nutsedge [4, 25]: 2
- Nutsedge plant response rating [4, 26]: 3
- Nutsedge plant response rating [4, 27]: 0
- Nutsedge plant response rating [4, 28]: 0
- Giant foxtail plant response rating [5, 18]: 0
- Giant foxtail plant response rating [5, 22]: 0
- Giant foxtail plant response rating [5, 23]: 3
- Plant response rating, Giant foxtail [5, 24]: 4
- Plant response rating, Giant foxtail [5, 25]: 4
- Giant foxtail plant response rating [5, 26]: 9
- Giant foxtail plant response rating [5, 27]: 0
- Giant foxtail plant response rating [5, 28]: 0
- Crabgrass plant response rating [6, 18]: 0
- Crabgrass plant response rating [6, 22]: 0
- Crabgrass plant response rating [6, 23]: 0
- Plant response rating, Crabgrass [6, 24]: 2
- Plant response rating, Crabgrass [6, 25]: 4
- Crabgrass plant response rating [6, 26]: 9
- Crabgrass plant response rating [6, 27]: 0
- Crabgrass plant response rating [6, 28]: 0
- Bedstraw plant response rating [7, 18]: 0
- Bedstraw plant response rating [7, 22]: 0
- Bedstraw plant response rating [7, 23]: 0
- Plant response rating, Bedstraw [7, 24]: 0
- Plant response rating, Bedstraw [7, 25]: 2
- Bedstraw plant response rating [7, 26]: 3
- Bedstraw plant response rating [7, 27]: 0
- Bedstraw plant response rating [7, 28]: 0
- Velvetleaf plant response rating [8, 18]: 3
- Velvetleaf plant response rating [8, 22]: 3
- Velvetleaf plant response rating [8, 23]: 0
- Plant response rating, Velvetleaf [8, 24]: 0
- Plant response rating, Velvetleaf [8, 25]: 0
- Velvetleaf plant response rating [8, 26]: 0
- Velvetleaf plant response rating [8, 27]: 3
- Velvetleaf plant response rating [8, 28]: 4
- Rice plant response rating [9, 18]: 0
- Rice plant response rating [9, 19]: 0
- Rice plant response rating [9, 20]: 3
- Rice plant response rating [9, 21]: 0
- Sugarbeets plant response rating [10, 18]: 0
- Sugarbeets plant response rating [10, 22]: 0
- Sugarbeets plant response rating [10, 23]: 0
- Plant response rating, Sugarbeets [10, 24]: 0
- Plant response rating, Sugarbeets [10, 25]: 0
- Sugarbeets plant response rating [10, 26]: 0
- Sugarbeets plant response rating [10, 27]: 0
- Sugarbeets plant response rating [10, 28]: 0
- Blackgrass plant response rating [11, 18]: 0
- Blackgrass plant response rating [11, 22]: 0
- Blackgrass plant response rating [11, 23]: 0
- Plant response rating, Blackgrass [11, 24]: 0
- Plant response rating, Blackgrass [11, 25]: 0
- Blackgrass plant response rating [11, 26]: 0
- Blackgrass plant response rating [11, 27]: 0
- Blackgrass plant response rating [11, 28]: 0
- Barnyardgrass plant response rating [12, 18]: 0
- Barnyardgrass plant response rating [12, 19]: 0
- Barnyardgrass plant response rating [12, 20]: 2
- Barnyardgrass plant response rating [12, 21]: 0
- B. signalgrass plant response rating [13, 18]: 0
- B. signalgrass plant response rating [13, 22]: 0
- B. signalgrass plant response rating [13, 23]: 0
- Plant response rating, B. signalgrass [13, 24]: 0
- Plant response rating, B. signalgrass [13, 25]: 0
- B. signalgrass plant response rating [13, 26]: 0
- B. signalgrass plant response rating [13, 27]: 0
- B. signalgrass plant response rating ([13]; Rate 500 g/ha, Postemergence, scale of 0 to 10 where 0 is no effect and 10 is complete control): 0
- S. Flatsedge plant response rating [14, 18]: 0
- S. Flatsedge plant response rating [14, 19]: 0
- S. Flatsedge plant response rating [14, 20]: 0
- S. Flatsedge plant response rating [14, 21]: 0
- Corn plant response rating [15, 18]: 0
- Corn plant response rating [15, 22]: 0
- Corn plant response rating [15, 23]: 0
- Plant response rating, Corn [15, 24]: 0
- Plant response rating, Corn [15, 25]: 0
- Corn plant response rating [15, 26]: 0
- Corn plant response rating [15, 27]: 0
- Corn plant response rating [15, 28]: 0
- Wheat plant response rating [16, 18]: 0
- Wheat plant response rating [16, 22]: 0
- Wheat plant response rating [16, 23]: 0
- Plant response rating, Wheat [16, 24]: 0
- Plant response rating, Wheat [16, 25]: 0
- Wheat plant response rating [16, 26]: 0
- Wheat plant response rating [16, 27]: 0
- Wheat plant response rating [16, 28]: 0
- Soybean plant response rating [17, 18]: 1
- Soybean plant response rating [17, 22]: 1
- Soybean plant response rating [17, 23]: 0
- Plant response rating, Soybean [17, 24]: 0
- Plant response rating, Soybean [17, 25]: 0
- Soybean plant response rating [17, 26]: 0
- Soybean plant response rating [17, 27]: 1
- Soybean plant response rating [17, 28]: 1
